# Measurements reported in patent US5693617A, “Inhibitors of the 26s proteolytic complex and the 20s proteasome contained therein” (ProScript, Inc., priority 1995, dated 1997).
# Entries after “also recorded” stand apart in the source; their conditions may differ. Non-standard residues stand in square brackets, D forms with d. Residues, ends and D or L forms follow the SMILES beside them. Nle = CCCC[C@H](N)C(=O)O
# Legend:
# 26S proteasome = target: T1, 26S proteasome (Oryctolagus cuniculus, UniProt G1T4Q9); experiment: Inhibition of the 26S proteasome (kinetic experiments); assay type: biochemical, Rabbit; settings: summary of enzyme inhibition; read-out: Ki, 26S proteasome complex activity
# T1 sequence (G1T4Q9 60-263): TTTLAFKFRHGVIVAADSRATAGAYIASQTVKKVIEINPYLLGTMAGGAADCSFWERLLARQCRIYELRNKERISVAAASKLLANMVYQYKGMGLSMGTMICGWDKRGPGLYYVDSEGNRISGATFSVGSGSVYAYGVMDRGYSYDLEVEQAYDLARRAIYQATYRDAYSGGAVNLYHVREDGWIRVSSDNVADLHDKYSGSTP
# T1 sequence (G1SU71 1-241 partner): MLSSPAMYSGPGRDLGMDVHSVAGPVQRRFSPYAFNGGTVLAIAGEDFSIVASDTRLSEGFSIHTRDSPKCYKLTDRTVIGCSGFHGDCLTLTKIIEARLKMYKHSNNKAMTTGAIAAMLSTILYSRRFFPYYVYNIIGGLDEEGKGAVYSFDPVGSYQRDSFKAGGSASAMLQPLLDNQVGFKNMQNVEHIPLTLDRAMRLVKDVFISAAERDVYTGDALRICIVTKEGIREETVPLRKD
# Description: Tables I-III summarize results from kinetic experiments that measured the inhibition of the 20S and 26S proteasomes, as well as cathepsin B and calpain, enzymes that may also be involved in muscle protein turnover. In these tables, Ki values are reported, which are dissociation constants for the equilibrium that is established when enzyme and inhibitor interact to form the enzyme:inhibitor complex.
# The substances and assay conditions are briefly summarized in the footnotes to Table I. MG 101 and MG 102, also known as Calpain Inhibitor I and II, were purchased from Calbiochem as catalogue products.
# (^b) Rabbit muscle. Substrate: […]. [Mg:ATP] = 2 mM.
# rat diaphragm muscle = experiment: T3 induced protein degradation in incubated rat diaphragm; settings: 40 μM MG 101; FIG. 3
# Experimental: T3 was administered to hypophysectomized rats for 7 days. […] After incubation, the tissue was homogenized, and ^3 -phenylalanine incorporation into protein and free tyrosine of the medium was measured.
# [1] = test system: mouse B lymphoblastoid cell line (LB27.4); experiment: MHC-I antigen presentation, electroporated antigen-presenting cells; assay type: cell-based
# Experimental: (§1) Antigen-presenting cells (APCs)--mouse B lymphoblastoid cell line (LB27.4)--were washed free of serum and loaded with an ovalbumin peptide (residues 257-263), which corresponds to the sequence these cells naturally generate and present. The APCs were incubated 1 hr at 37° C., electroporated with antigen, incubated 10 min on ice and washed. The antigen loaded cells were incubated 2 hrs at 37° C., fixed with paraformaldehyde, and washed. MG 101 at the concentrations indicated in FIG. 5 was present in all steps prior to fixation. APCs were assayed for antigen presentation as described in Rock et al., J. Immunol. 145:804-811 (1990) and Carbone et al., J. Exp Med. 171:377-387 (1990). […] In the left panel, APCs were treated with (open circles) or without (closed circles) MG 101 and electroporated with ovalbumin. In the right panel, APCs were treated with (open circles) or without (closed circles) MG 101 and electroporated with ovalbumin peptide.
# RMA cells = experiment: Class I MHC assembly in RMA cells; assay type: cell-based
# Experimental: Class I MHC molecules are peptide-binding receptors composed of a heavy and a light chain. Peptide binding to these molecules is essential for the stable association of the heavy and light chains. […] To test the effect of MG 101 on class I assembly, RMA cells were incubated with and without MG 101 (100 μM) for 1 hr at 37° C., electroporated with and without MG 101 (100 μM) as described in Example 7, and incubated with and without MG 101 (100 μM) for 3 hrs at 37° C. Over the last 30 min of incubation the cells were pulse labeled with ^35 S-methionine and were then washed and detergent lysates were prepared. Lysates were divided and class I binding peptides were added to one group. Class I molecules were immunoprecipitated with a mAb, Y3 (Townsend et al., Cell 62:285-295 (1990)), that only reacts with assembled class I heterodimers and analyzed as previously described ([…] et al., Nature 363:552-554 (1993)).
# human cell line RAJI-K^b = experiment: MHC-I antigen presentation in human cells; assay type: cell-based; settings: FIG. 8
# Experimental: as §1, with “peptide. Example 7 was repeated except that the human cell line RAJI-K^b was used.” for “peptide.”
# [2] = target: chymotrypsin-like activity of the proteasome; settings: Vinitsky et al. 1992; slow binding inhibitors; cited from earlier work
structure (smiles),measurement,setting,value
"CCCC[C@@H](C=O)NC(=O)[C@H](CC(C)C)NC(=O)[C@H](CC(C)C)NC(C)=O [MG 101, Ac-Leu-Leu-Nle-H] (Ac-Leu-Leu-[Nle]-aldehyde)",Ki,26S proteasome,2.9 µM
same,Protein degradation induced by T3 in incubated rat diaphragm,rat diaphragm muscle,inhibits the accelerated proteolysis in muscle; also recorded: inhibition of protein degradation
same,MHC-I presentation of ovalbumin peptide,"[1]; APCs electroporated with ovalbumin peptide, FIG. 5 right panel",fails to block the presentation of the specific peptide; also recorded: does not inhibit the presentation of electroporated peptide
same,MHC-I presentation of ovalbumin,"[1]; APCs electroporated with ovalbumin, FIG. 5 left panel",inhibits the presentation of ovalbumin with class I MHC molecules; also recorded: inhibits presentation of antigen from ovalbumin
same,Assembly of class I heterodimers,"RMA cells; 100 μM MG 101, FIG. 7",markedly reduced
same,Class I complex formation from introduced antigenic peptide,"RMA cells; 100 μM MG 101, FIG. 7 lane 4",fails to inhibit complex formation from introduced antigenic peptide
same,Appearance of MHC-I molecules on the cell surface,RMA cells; FIG. 7,specifically blocks the movement of functional MHC-I complexes to the cell surface; also recorded: blocks the appearance of MHC-I molecules on the cell surface
same,Level of the individual class I subunits,RMA cells; control experiments,does not affect the level of the individual subunits
same,Presentation of antigen from ovalbumin in human cells,human cell line RAJI-K^b,prevents antigen presentation in human cells; also recorded: inhibits presentation of antigen from ovalbumin in human cells
same,Ki,[2],5.7 µM
